Patent publication US8981179B2, “Transgenic non-human animal and uses thereof” (Sanofi, priority 2009, dated 2015)

Assays:
mGluR7 [1] = biological target: T1, mGluR7 (Mus musculus, UniProt Q68ED2); assay: Whole brain slice luminescence, Gi agonist with isoproterenol; type: cell-based; set-up: from tissue; host or cells: hippocampal brain slices, CreLuc mouse line 187; conditions: line 187, 1 uM AMN082 in combination with 1 uM ISO
Procedure: Whole brain slices were used to show the effects of compounds on luminescence in CreLuc mice (FIG. 8A, 8B). In general, brains from CreLuc mice can be harvested and then either cut into slices on a microtome or various subregions can also be dissected out and then sliced on a microtome. The slices can then be incubated with different compounds such as forskolin and rolipram, or GPCR specific compounds. Luciferase levels can then be measured with an IVIS bioimager or a photomultiplier with a carousel to take quantitative timecourse measurements.
Brain slices from the hippocampal region of CreLuc mice (line #187) were incubated with 1 uM isoproterenol (Sigma, cat#5627) for 2 days. […] (FIG. 8A, bottom panel). Thus, isoproterenol was used to increase the luciferase signal window which allows for screening GPCR specific compounds such as Gi agonists. AMN082 (AMN, Tocris Bioscience, Cat. No. 2385) is an mGluR7 agonist and mGluR7 is a receptor that is coupled to Gi. When brain slices were treated with 1 uM ISO in combination with 1 uM AMN082, the luciferase signal was diminished in comparison to ISO treatment alone.

mGluR7 [2] = biological target: T1, mGluR7; assay: Primary cortical neurons CreLuc luciferase assay, Gi modulation via mGluR7; type: cell-based; set-up: endogenous in cells; host or cells: primary cortical neurons, E18 embryos, CreLuc mouse line 187
From the text: (§1) A general schematic of the workflow for the isolation and compound treatment of primary neuronal cells from the CreLuc model is depicted in FIG. 9. Cortices or other brain subregions are removed from embryos, usually embryonic (E) day 17 or 18, but also as early as E14. The individual neurons are then isolated and plated onto 96 well assay plates. Assays are run either in triplicate or quadruplicate. The assays are run from day 3 in culture up until day 7 or day 10 in culture depending on the expression levels of the target GPCR. Compounds are added to the plates then at a set timepoint, Bright Glo (Promega, Cat #E2610) is added to the plates and the assay is then run on a TopCount or other luminometer.
Primary cell cultures from the CreLuc mice may be used to screen compounds that are capable of modulating Gi coupled receptors. […] Cortical neurons were harvested from E18 embryos. The assay was run at day 3 in culture. Forskolin was used at 10 μM to give a larger signal window to be used to detect Gi activity. The mGluR7 agonist, AMN082 was used in combination with forskolin at 1 nM, 10 nM, 100 nM and 1 μM. The assay was read on a TopCount with Bright Glo (Promega) at 4 hours, and 8 hours. […] The CreLuc mice can be used to screen for compounds that modulate Gq coupled receptors.
However, to increase the signal window even wider, rolipram (blocks the breakdown of cAMP) was used in combination with forskolin. Primary cortical neurons were isolated from E18 embryos from line 187 which was previously determined to have inducible brain and spinal cord expression. The assay, in triplicates, was run at day 7 in culture for 6 hours. A dose curve, 10 μM down to 1 nM, for AMN082 was run in combination with 50 μM forskolin and 10 μM rolipram. The assay was read on a TopCount luminometer with Bright Glo substrate (Promega). […] All lines used were previously determined to have inducible luciferase expression levels in whole brain tissue extracts (data not shown). […] Bright Glo luciferase assay substrate was then added, and the assay read on a Topcount luminometer. […]

[3] = biological target: T2, adrenoceptor beta3 (Adrb3) (Mus musculus, UniProt P25962); assay: Induction of luciferase by Adrb3 agonist in CRE-Luc mice (tissue homogenates, bioimaging); type: in vivo; conditions: 1 mg/kg, ip
T2 construct: from tissue; host or cells: whole animal; luciferase read in tissue homogenates (adipose tissue, lung and others) and by bioimaging
T2 sequence (P25962 whole entry): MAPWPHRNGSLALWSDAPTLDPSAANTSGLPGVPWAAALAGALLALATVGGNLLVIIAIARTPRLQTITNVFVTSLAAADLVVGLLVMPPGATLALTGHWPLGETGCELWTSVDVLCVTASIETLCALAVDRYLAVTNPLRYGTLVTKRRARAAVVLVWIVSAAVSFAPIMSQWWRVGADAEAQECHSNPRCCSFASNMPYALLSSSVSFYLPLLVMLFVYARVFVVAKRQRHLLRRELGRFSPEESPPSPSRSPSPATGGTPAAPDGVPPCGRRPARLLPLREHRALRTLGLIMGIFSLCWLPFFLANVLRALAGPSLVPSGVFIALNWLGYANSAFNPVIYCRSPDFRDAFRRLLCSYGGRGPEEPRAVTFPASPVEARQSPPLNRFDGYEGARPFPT
Procedure: The luciferase assay was performed in tissue homogenates.

CB1 = biological target: T3, CB1 (Mus musculus, UniProt P47746); assay: Primary cortical neurons CreLuc luciferase assay, Gi modulation by CB1 agonist; type: cell-based
T3 construct: endogenous in cells; host or cells: primary cortical neurons, E18, CreLuc mouse lines 69, 187, 175, 219
T3 sequence (P47746 whole entry): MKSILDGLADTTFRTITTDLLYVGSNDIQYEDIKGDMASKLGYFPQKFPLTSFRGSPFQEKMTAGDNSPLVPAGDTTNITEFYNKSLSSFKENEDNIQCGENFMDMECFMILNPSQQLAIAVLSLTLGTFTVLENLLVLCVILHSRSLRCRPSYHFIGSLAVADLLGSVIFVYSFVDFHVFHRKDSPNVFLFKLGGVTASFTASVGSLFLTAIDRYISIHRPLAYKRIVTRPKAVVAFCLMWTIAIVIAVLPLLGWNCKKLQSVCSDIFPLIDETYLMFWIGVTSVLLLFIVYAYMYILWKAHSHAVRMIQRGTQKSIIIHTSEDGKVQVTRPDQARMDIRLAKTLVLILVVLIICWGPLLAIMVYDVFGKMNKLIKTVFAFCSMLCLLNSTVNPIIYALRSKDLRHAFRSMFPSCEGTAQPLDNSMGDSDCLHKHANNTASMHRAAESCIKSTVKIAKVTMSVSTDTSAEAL
Procedure: However, to increase the signal window even wider, rolipram (blocks the breakdown of cAMP) was used in combination with forskolin. Primary cortical neurons were isolated from E18 embryos from line 187 which was previously determined to have inducible brain and spinal cord expression. The assay, in triplicates, was run at day 7 in culture for 6 hours. A dose curve, 10 μM down to 1 nM, for AMN082 was run in combination with 50 μM forskolin and 10 μM rolipram. The assay was read on a TopCount luminometer with Bright Glo substrate (Promega). […] Gi modulation of luciferase expression in primary cortical neurons from different CreLuc lines by the CB1 agonist, CP 55,940 was performed in the presence of forskolin and rolipram (FIG. 15). Primary cortical neurons were harvested from lines 69, 187, 175 and 219 at E18. All lines used were previously determined to have inducible luciferase expression levels in whole brain tissue extracts (data not shown). The assays were run on day three in culture. The CB1 agonist was used at 10 μM, forskolin at 5 μM and rolipram at 10 μM. […] Bright Glo luciferase assay substrate was then added, and the assay read on a Topcount luminometer. […]
Gi modulation of luciferase in primary cortical neurons from CreLuc mice by the CB1 agonist, CP 55,940 was in a dose-dependent manner (FIG. 15B). […] The assay was read on a TopCount with BrightGlo (Promega) at 8 hours.

plasma cAMP = conditions: Balb/c mice, 10 mg/kg, blood harvested after 20 minutes; cited from earlier work
[4] = biological target: T4, D1 dopamine receptors (DRD1) (Mus musculus, UniProt Q61616); assay: Primary cortical neurons CreLuc luciferase assay, Gs modulation via DRD1; type: cell-based; conditions: 4 hours
T4 construct: Neurons were isolated from the cortices of line 187 E18 embryos; endogenous in cells; host or cells: primary cortical neurons (E18) and striatal neurons (E14), CreLuc mouse line 187
T4 sequence (Q61616 whole entry): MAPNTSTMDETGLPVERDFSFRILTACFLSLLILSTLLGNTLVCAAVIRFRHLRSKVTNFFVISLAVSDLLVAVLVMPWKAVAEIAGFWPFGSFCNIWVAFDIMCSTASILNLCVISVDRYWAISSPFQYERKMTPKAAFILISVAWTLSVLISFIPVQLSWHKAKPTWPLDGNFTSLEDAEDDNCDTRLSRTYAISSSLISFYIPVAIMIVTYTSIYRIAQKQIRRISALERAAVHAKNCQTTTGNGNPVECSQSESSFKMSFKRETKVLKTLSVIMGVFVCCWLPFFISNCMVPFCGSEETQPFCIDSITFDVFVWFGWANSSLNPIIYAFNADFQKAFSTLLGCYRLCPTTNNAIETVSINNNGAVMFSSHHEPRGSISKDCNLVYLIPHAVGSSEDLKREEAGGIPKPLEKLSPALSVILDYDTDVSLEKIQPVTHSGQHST
From the text: as §1
The assay was run in triplicates on day three in culture. Forskolin was used at 5 μM, rolipram at 10 μM and the Gs agonists, ADβR-isoproterenol; and Dopamine-SKF82958 (MFG, Cat #C130) at 10 μM. At 4 hours, Bright Glo was added and the assays run on a Topcount. Forskolin is a general activator of cAMP.

[5] = biological target: T5, glucagon-like peptide 1 receptor (GLP-1R) (Mus musculus, UniProt O35659); assay: Induction of luciferase reporter by GLP-1R agonist in CRE-Luc mice (bioimaging, tissue homogenates); type: in vivo
T5 construct: from tissue; host or cells: whole animal; bioimaging and tissue homogenates, signal in the pancreas
T5 sequence (O35659 22-463): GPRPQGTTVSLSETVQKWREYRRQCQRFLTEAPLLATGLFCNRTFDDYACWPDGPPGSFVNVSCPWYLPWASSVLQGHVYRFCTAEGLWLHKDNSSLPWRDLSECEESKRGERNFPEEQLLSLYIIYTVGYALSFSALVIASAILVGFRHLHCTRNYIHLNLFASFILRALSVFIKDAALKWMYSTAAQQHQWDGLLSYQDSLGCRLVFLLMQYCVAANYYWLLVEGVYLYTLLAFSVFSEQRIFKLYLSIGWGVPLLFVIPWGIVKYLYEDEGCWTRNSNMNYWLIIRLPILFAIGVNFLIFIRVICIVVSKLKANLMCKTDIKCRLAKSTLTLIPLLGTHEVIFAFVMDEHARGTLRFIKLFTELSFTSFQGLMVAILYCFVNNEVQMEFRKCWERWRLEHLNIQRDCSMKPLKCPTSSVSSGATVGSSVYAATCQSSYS
Procedure: Transgene activation co-localizes with tissue specific receptor activation as exemplified by the induction of luciferase reporter by the glucagon-like peptide 1 receptor (GLP-1R) agonist, AVE0010, which was studied in three independent lines of CRE-Luc mice (FIG. 28). The GLP-1R is Gs coupled. Baseline images were acquired on day 1. On day 2, mice were treated with AVE0010 (0.1 mg/kg, sc) and imaged after 4 hours. Folds of induction over baseline were indicated at the bottom. […] Luciferase activities in 8 different tissues were measured for lines 11, 16 and 90 (FIG. 29) following treatment with AVE0010 (0.1 mg/kg, s.c.) for 4 hours. […] The activity of AVE0010 is limited to the pancreas even though GLP-1R is found in different tissue types.
The induction of Cre-Luc by AVE0010 is likely beta-cell mediated. The effects of the beta-cell toxin streptozotocin (STZ) on the induction of CRE-Luc by AVE0010 was investigated (FIG. 30). Male CRE-luc mice were imaged before and after AVE0010 (0.1 mg/kg, sc) treatment. […] Then, the animals were treated with vehicle or STZ (200 mpk, ip). Four days later, they were imaged again after AVE0010 treatment.

[6] = Blood glucose in unfasted CRE-luc mice; type: in vivo, mouse; conditions: line 11, AVE0010 0.1 mg/kg, sc
Procedure: The induction of CRE-Luc by AVE0010 is likely beta-cell-specific (FIG. 31). Animals were treated as described in FIG. 30. Blood glucose levels were measured by tail vein nicking on unfasted mice. Glucose levels were read on a Bayer glucometer. Glucose levels are shown as mg glucose/[…]. Fold induction is the luciferase bioimaging levels of AVE10 dosing versus the baseline signals. Blood glucose levels (BG) were increased by STZ (upper left panel). Non-fasting BG levels were reduced by AVE0010 (0.1 mg/kg, sc).

T1 sequence (Q68ED2 35-915): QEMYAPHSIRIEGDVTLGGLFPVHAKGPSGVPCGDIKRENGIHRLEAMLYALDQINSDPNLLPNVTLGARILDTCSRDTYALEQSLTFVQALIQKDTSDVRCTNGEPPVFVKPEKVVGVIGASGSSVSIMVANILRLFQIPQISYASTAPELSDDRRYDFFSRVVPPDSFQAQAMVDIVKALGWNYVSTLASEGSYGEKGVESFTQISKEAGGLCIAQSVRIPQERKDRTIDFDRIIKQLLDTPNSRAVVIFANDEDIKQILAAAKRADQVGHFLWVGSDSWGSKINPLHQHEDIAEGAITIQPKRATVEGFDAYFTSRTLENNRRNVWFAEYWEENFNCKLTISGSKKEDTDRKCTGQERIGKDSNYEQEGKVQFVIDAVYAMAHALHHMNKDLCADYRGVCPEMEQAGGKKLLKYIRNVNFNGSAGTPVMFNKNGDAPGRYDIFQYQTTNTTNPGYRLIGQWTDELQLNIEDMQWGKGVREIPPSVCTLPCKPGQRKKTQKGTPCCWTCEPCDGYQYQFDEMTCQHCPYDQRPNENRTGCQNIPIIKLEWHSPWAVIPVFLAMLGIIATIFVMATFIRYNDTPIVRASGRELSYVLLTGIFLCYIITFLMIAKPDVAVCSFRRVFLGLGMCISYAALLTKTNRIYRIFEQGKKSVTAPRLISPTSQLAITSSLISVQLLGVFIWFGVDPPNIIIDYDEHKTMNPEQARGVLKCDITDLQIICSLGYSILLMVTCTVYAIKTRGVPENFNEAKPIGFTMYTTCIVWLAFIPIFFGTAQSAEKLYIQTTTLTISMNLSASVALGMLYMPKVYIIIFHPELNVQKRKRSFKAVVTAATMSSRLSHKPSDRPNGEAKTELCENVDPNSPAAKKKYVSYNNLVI

Cl.Cl.c1ccc(C(NCCNC(c2ccccc2)c2ccccc2)c2ccccc2)cc1 [AMN082]
luciferase signal in brain slices in comparison to ISO treatment alone (mGluR7 [1]): diminished
luciferase levels versus forskolin only (mGluR7 [2]; cortical neurons line 187, day 3, 10 μM forskolin, 100 nM and 1 μM AMN082, 4 hours and 8 hours): Significant decreases
EC50 (mGluR7 [2]; cortical neurons line 187, day 3, in combination with 10 μM forskolin, 4 hours, read-out: calculated EC50 (Gi modulation of luciferase)): 0.174 µM
decreases in luciferase levels vs. forskolin and rolipram controls (mGluR7 [2]; cortical neurons line 187, day 7, 6 hours, 50 μM forskolin and 10 μM rolipram, at 1 μM, 100 nM and 1 nM, p<0.0005): 59-61%

C[C@H](Cc1ccc2c(c1)OC(C(=O)[O-])(C(=O)[O-])O2)NC[C@H](O)c1cccc(Cl)c1.[Na+].[Na+] [CL316,243]
induction via bioimaging ([3]; 4 lines, BLI 4-5 hours after treatment): visible induction
induction of luciferase in the adipose tissue and lung (tissue homogenates) ([3]; 7 of 12 independent transgenic lines screened): greater than 10 fold

CCCCCCC(C)(C)c1ccc([C@@H]2C[C@H](O)CC[C@H]2CCCO)c(O)c1 [CP 55,940]
luciferase levels, agonist plus forskolin and rolipram versus forskolin and rolipram alone (CB1; cortical neurons line 187, 10 μM, 1 μM and 100 nM, forskolin and rolipram 10 μM, 8 hours): Significant decreases
luciferase signal with addition of CB1 agonist in different CreLuc lines (CB1; lines 69, 187, 175 and 219, 10 μM with forskolin 5 μM and rolipram 10 μM, four and twenty-four hours): Decreased signals

COc1ccc(C2CNC(=O)NC2)cc1O[C@H]1C[C@@H]2CC[C@H]1C2 [CP-80,633]
plasma cAMP levels (plasma cAMP): significantly increase

C=CCN1CCc2c(cc(O)c(O)c2Cl)C(c2ccccc2)C1 (stereo not drawn) [SKF82958]
induction of luciferase in combination with rolipram compared to rolipram alone ([4]; cortical neurons line 187, 10 μM with 10 μM rolipram): 2 fold
luciferase levels, agonist alone ([4]; cortical neurons line 187, day 3, 10 μM): did not significantly increase

AVE0010: glucagon-like peptide 1 receptor (GLP-1R) agonist
luciferase activity in tissue homogenates of 8 tissues ([5]; lines 11, 16 and 90, 0.1 mg/kg, s.c., 4 hours): pancreas-specific induction of luciferase
bioimaging response of mice before and after treatment ([5]; male line 11, 0.1 mg/kg, sc): responsive
transgene activation in the pancreas (bioimaging) ([5]; three independent lines, 0.1 mg/kg, sc, imaged after 4 hours): strong induction
non-fasting BG levels [6]: reduced
